Source: ChEMBL document CHEMBL1153157, “Discovery of benzimidazole-diamide finger loop (Thumb Pocket I) allosteric inhibitors of HCV NS5B polymerase: Implementing parallel synthesis for rapid linker optimization” (Bioorg Med Chem Lett, 2010)
In brackets after ≈: the same amount, converted by molar mass. Activity calls are given as the source filed them. The calls are words filed in the database; no cut-off is given here.

What was measured:
[1] = tested on: Hepatitis C virus; assay: Inhibition of N-terminal hexahistidine tagged HCV 1b NS5B polymerase expressed in baculovirus infected Sf21 cells after 90 mins by SPA; design: species or system Hepatitis C virus subtype 1b; settings: Sf21, 1.5 h
[2] = tested on: Hepatitis C virus; assay: Antiviral activity against Hepatitis C virus subtype 1b by cell-based replicon assay; format: functional, organism-based, Hepacivirus hominis; settings: genotype 1b
[3] = molecular target: Cytochrome P450 2D6 (Homo sapiens, UniProt P10635); assay: Inhibition of human liver CYP2D6; format: ADME
[4] = molecular target: T1, Cytochrome P450 1A2 (Homo sapiens, UniProt P05177); assay: Inhibition of human liver CYP1A2; format: ADME
T1 sequence (P05177 whole entry): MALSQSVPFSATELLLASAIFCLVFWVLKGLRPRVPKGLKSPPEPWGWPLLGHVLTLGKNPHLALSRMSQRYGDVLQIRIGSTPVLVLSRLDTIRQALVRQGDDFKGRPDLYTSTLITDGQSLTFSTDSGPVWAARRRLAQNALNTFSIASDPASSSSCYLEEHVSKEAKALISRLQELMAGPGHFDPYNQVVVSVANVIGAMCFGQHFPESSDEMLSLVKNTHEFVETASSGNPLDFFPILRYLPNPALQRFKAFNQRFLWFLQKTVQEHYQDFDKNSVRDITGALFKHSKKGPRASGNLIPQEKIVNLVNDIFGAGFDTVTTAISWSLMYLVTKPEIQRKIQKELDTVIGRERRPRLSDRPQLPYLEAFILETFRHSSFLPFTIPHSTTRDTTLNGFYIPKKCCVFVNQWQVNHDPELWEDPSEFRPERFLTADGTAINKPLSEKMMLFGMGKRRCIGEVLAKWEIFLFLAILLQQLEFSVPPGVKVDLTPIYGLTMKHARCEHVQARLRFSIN

[5] = Lipophilicity, log D at pH 7.4; format: physicochemical; settings: buffer
[6] = molecular target: Cytochrome P450 3A4 (Homo sapiens, UniProt P08684); assay: Inhibition of human liver CYP3A4; format: ADME
[7] = molecular target: Cytochrome P450 2C19 (Homo sapiens, UniProt P33261); assay: Inhibition of human liver CYP2C19; format: ADME
[8] = molecular target: Cytochrome P450 2C9 (Homo sapiens, UniProt P11712); assay: Inhibition of human liver CYP2C9; format: ADME
[9] = Aqueous solubility at pH 7.2; format: physicochemical; settings: buffer
[10] = tested on: Liver microsomes; assay: (§1) Half life in human liver microsomes at 10 uM; format: ADME, Microsome; settings: microsomes, 10 µM
[11] = species: Bos taurus; assay: Inhibition of calf thymus DNA-dependent RNA polymerase up to 200 uM after 120 mins
[12] = tested on: Enterovirus C; assay: Inhibition of Poliovirus RNA dependent RNA polymerase expressed in Escherichia coli BL21 (DE3) up to 200 uM after 90 mins by SPA
[13] = as §1; format: ADME, Microsome; settings: liver microsomes

Cytochrome P450 2C9, sequence (P11712 whole entry): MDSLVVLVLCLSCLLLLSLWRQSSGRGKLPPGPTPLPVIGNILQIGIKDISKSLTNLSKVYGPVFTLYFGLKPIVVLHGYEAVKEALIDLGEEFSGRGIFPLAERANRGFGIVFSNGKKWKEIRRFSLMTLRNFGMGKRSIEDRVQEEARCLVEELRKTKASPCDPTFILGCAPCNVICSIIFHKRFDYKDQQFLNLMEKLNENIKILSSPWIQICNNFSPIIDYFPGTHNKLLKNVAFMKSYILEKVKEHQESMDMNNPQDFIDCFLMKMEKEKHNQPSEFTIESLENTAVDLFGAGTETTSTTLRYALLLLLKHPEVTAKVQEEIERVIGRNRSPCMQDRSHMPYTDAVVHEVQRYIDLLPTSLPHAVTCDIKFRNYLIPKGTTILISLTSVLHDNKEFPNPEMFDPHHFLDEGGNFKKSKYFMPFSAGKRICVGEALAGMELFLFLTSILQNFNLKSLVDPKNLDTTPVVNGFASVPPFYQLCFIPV
Cytochrome P450 3A4, sequence (P08684 whole entry): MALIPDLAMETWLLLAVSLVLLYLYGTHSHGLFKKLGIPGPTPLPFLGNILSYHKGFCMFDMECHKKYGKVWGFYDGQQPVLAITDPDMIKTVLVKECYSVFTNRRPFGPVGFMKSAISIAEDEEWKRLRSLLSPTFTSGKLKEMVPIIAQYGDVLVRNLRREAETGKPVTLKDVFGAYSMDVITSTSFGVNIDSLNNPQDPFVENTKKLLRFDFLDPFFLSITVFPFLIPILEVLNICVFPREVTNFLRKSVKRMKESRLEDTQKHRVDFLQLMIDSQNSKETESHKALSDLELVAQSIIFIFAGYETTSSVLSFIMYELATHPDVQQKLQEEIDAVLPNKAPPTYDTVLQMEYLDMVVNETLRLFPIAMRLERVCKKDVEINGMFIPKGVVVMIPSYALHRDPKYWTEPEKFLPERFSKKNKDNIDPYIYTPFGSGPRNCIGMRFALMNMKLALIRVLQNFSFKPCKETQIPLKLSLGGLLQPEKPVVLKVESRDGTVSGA
Cytochrome P450 2D6, sequence (P10635 whole entry): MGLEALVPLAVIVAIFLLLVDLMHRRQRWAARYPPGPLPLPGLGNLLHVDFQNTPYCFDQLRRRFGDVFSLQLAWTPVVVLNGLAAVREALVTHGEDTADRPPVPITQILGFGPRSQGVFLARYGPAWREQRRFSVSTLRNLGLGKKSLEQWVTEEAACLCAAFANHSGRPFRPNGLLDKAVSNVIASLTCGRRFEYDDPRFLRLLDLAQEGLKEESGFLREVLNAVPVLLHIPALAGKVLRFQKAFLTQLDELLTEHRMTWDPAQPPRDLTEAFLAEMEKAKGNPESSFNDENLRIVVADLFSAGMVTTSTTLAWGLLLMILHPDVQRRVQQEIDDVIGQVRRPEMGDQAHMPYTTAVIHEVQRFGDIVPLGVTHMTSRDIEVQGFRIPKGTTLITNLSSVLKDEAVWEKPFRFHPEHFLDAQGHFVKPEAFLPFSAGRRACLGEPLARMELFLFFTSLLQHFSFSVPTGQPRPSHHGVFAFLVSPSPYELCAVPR
Cytochrome P450 2C19, sequence (P33261 whole entry): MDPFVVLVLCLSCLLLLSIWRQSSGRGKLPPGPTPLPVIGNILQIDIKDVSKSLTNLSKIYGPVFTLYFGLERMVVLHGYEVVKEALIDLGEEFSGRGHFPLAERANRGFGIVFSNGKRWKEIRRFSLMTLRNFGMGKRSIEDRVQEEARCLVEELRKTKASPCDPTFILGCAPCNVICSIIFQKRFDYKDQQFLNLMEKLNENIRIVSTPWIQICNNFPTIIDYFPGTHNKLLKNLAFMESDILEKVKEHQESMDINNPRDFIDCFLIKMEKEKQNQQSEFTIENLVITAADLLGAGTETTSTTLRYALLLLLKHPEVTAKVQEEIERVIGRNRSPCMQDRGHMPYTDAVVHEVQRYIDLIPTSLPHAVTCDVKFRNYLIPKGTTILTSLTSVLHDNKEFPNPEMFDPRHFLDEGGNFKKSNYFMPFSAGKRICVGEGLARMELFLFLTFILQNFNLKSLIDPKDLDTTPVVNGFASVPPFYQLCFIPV

Compound	IC50 [1]	EC50 [2]	further results
CC(=O)COc1ccc(NC(=O)C(C)NC(=O)c2ccc3c(c2)nc(-c2ccoc2)n3C2CCCCC2)cc1 (racemic)	0.9 µM	–	–
CC(NC(=O)c1ccc2c(c1)nc(-c1ccoc1)n2C1CCCCC1)C(=O)Nc1ccc(/C=C/C(=O)O)cc1 (racemic)	0.34 µM	13 µM	–
CC(NC(=O)c1ccc2c(c1)nc(-c1ccoc1)n2C1CCCCC1)C(=O)Nc1ccc(CC(=O)O)cc1 (racemic)	1.52 µM	–	–
CC(NC(=O)c1ccc2c(c1)nc(-c1ccoc1)n2C1CCCCC1)C(=O)Nc1cccc(/C=C/C(=O)O)c1 (racemic)	0.9 µM	–	–
C[C@H](NC(=O)c1ccc2c(c1)nc(-c1ccoc1)n2C1CCCCC1)C(=O)Nc1ccc(/C=C/C(=O)O)cc1	0.36 µM	25 µM	–
CC(NC(=O)c1ccc2c(c1)nc(-c1ccoc1)n2C1CCCCC1)C(=O)Nc1cccc(C(=O)O)c1 (racemic)	1.61 µM	–	–
C[C@@H](NC(=O)c1ccc2c(c1)nc(-c1ccoc1)n2C1CCCCC1)C(=O)Nc1ccc2oc(C(=O)O)cc2c1	0.09 µM	> 42 µM	–
CC[C@@H](NC(=O)c1ccc2c(c1)nc(-c1ccoc1)n2C1CCCCC1)C(=O)Nc1ccc(/C=C/C(=O)O)cc1	0.4 µM	6.5 µM	–
CC(NC(=O)c1ccc2c(c1)nc(-c1ccoc1)n2C1CCCCC1)C(=O)Nc1ccc(-c2ccc(C(=O)O)o2)cc1 (racemic)	0.45 µM	28 µM	–
O=C(N[C@@H](Cc1c[nH]c2ccc(O)cc12)c1cscn1)c1ccc2c(c1)nc(-c1ccoc1)n2C1CCCCC1	0.3 µM	1.7 µM	IC50 [3]: 4 µM; IC50 [4]: > 30 µM; logD [5]: 3.8; IC50 [6]: 0.4 µM; IC50 [7]: 2.4 µM; IC50 [8]: 2.3 µM; solubility [9]: < 0.07 µg/mL; t1/2 [10]: 26 min
C[C@@H](NC(=O)c1ccc2c(c1)nc(-c1ccoc1)n2C1CCCCC1)C(=O)Nc1ccc2[nH]c(C(=O)O)cc2c1	0.06 µM	> 40 µM	–
Cn1c(-c2ccoc2)c(C2CCCCC2)c2ccc(C(=O)N[C@@H](Cc3c[nH]c4ccc(O)cc34)c3cscn3)cc21	0.1 µM	0.05 µM	–
O=C(O)/C=C/c1ccc(NC(=O)CNC(=O)c2ccc3c(c2)nc(-c2ccoc2)n3C2CCCCC2)cc1	0.28 µM	41 µM	–
O=C(O)COc1ccc2[nH]cc(C[C@H](NC(=O)c3ccc4c(c3)nc(-c3ccoc3)n4C3CCCCC3)C(=O)O)c2c1	0.019 µM	–	–
CC(NC(=O)c1ccc2c(c1)nc(-c1ccoc1)n2C1CCCCC1)C(=O)Nc1ccc(C(=O)O)cc1 (racemic)	0.39 µM	30 µM	–
C[C@@H](NC(=O)c1ccc2c(c1)nc(-c1ccoc1)n2C1CCCCC1)C(=O)Nc1ccc(/C=C/C(=O)O)cc1	0.13 µM	6.9 µM	IC50 [3]: > 30 µM; Activity [11]: inactive; Activity [12]: inactive; IC50 [4]: > 30 µM; logD [5]: 2.2; IC50 [6]: 12.3 µM; IC50 [7]: > 30 µM; IC50 [8]: > 30 µM; solubility [9]: 171 µg/mL (≈ 325 µM); half-life at 10 µM [13]: 44 min
